Source: the supplement of paper PMC10331698
± gives the standard deviation of the averaged measurements.

What was measured:
Test in all cases: level (log10 ratio to DMSO vehicle control); higher = higher biomarker level / cell amount than vehicle control
Settings in all cases: in DMSO
Pentafluoropropionamide = compound: NC(=O)C(F)(F)C(F)(F)F [Pentafluoropropionamide]
Method: (§1)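 BioMAP Diversity Plus panel of 12 human primary cell co-culture systems (3C, 4H, LPS, SAg, BT, BF4T, BE3C, CASM3C, HDF3CGF, KF3CT, MyoF, Mphg). Compounds were added 1 h before stimulation and left for 24 h (MyoF 48 h; BT 72 h for soluble read-outs or 6 d for IgG). Biomarkers were read by ELISA, cytotoxicity by SRB, PBMC viability and proliferation by Alamar Blue. Each well value was divided by the mean of 8 DMSO control wells on the same plate and log10 transformed; duplicate blinded samples were tested at 4 concentrations.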

Perfluorodecanoic acid = compound: O=C(O)C(F)(F)C(F)(F)C(F)(F)C(F)(F)C(F)(F)C(F)(F)C(F)(F)C(F)(F)C(F)(F)F [Perfluorodecanoic acid]
Method: as §1

[1] = compound: C=C(C)C(=O)OCCC(F)(F)C(F)(F)C(F)(F)C(F)(F)C(F)(C(F)(F)F)C(F)(F)F [(Perfluoro-5-methylhexyl)ethyl 2-methylprop-2-enoate]
Method: as §1

[2] = compound: O=C(O)C(F)(F)C(F)(F)C(F)(F)OC(F)(C(F)(F)F)C(F)(F)F [Perfluoro-4-isopropoxybutanoic acid]
Method: as §1

[3] = compound: O=C(O)C(F)(F)C(F)(F)OC(F)(F)F [Perfluoro-3-methoxypropanoic acid]
Method: as §1

Heptafluorobutyramide = compound: NC(=O)C(F)(F)C(F)(F)C(F)(F)F [Heptafluorobutyramide]
Method: as §1

Test System	level (log10) (Pentafluoropropionamide; 6700 nM)	level (log10) (Pentafluoropropionamide; 20000 nM)	level (log10) (Pentafluoropropionamide; 60000 nM)	level (log10) (Perfluorodecanoic acid; 6700 nM)	level (log10) (Perfluorodecanoic acid; 20000 nM)	level (log10) ([1]; 6700 nM)	level (log10) ([1]; 20000 nM)	level (log10) ([2]; 6700 nM)	level (log10) ([2]; 20000 nM)	level (log10) ([2]; 60000 nM)	level (log10) ([3]; 6700 nM)	level (log10) ([3]; 20000 nM)	level (log10) ([3]; 60000 nM)	level (log10) (Heptafluorobutyramide; 6700 nM)	level (log10) (Heptafluorobutyramide; 20000 nM)	level (log10) (Heptafluorobutyramide; 60000 nM)
3C:CCL2/MCP-1	0.006 ± 0.018	-0.007 ± 0.0099	0.0275 ± 0.00071	0.0065 ± 0.013	-0.004 ± 0.0028	-0.0145 ± 0.025	0.006 ± 0.044	-0.005 ± 0.016	0.001 ± 0.0071	0.0375 ± 0.018	-0.0125 ± 0.0064	-0.0095 ± 0.00071	0.0165 ± 0.0064	-0.011 ± 0.0057	-0.0125 ± 0.0064	0.0065 ± 0.03
KF3CT:uPA	-0.005 ± 0.0014	0.008 ± 0.0085	0.002 ± 0.018	-0.0095 ± 0.013	0 ± 0.023	0.007 ± 0.0057	0.007 ± 0.0028	-0.002 ± 0.0028	0.0105 ± 0.0035	0.016 ± 0.0014	0 ± 0.018	-0.0055 ± 0.012	0.002 ± 0.0085	-0.0085 ± 0.022	-0.0215 ± 0.026	-0.006 ± 0.014
CASM3C:CD87/uPAR	-0.031 ± 0.05	-0.012 ± 0.0071	-0.019 ± 0.03	-0.0055 ± 0.005	0.016 ± 0.011	-0.0305 ± 0.013	-0.035	-0.0225 ± 0.046	-0.0265 ± 0.052	0.003 ± 0.014	-0.021 ± 0.048	-0.0235 ± 0.035	-0.031 ± 0.033	-0.0065 ± 0.026	-0.0115 ± 0.032	-0.033 ± 0.054
HDF3CGF:TIMP-2	-0.0185 ± 0.026	0.008 ± 0.0057	0.033 ± 0.013	-0.006 ± 0.028	-0.349 ± 0.17	0.0075 ± 0.026	-0.0295 ± 0.019	-0.008 ± 0.017	0.0335 ± 0.022	-0.004 ± 0.023	-0.029 ± 0.047	0.001 ± 0.0099	-0.01 ± 0.023	-0.0195 ± 0.025	-0.0065 ± 0.033	-0.009 ± 0.071
CASM3C:M-CSF	-0.021 ± 0.038	-0.0125 ± 0.00071	0.0205 ± 0.035	0.0145 ± 0.0078	0.0345 ± 0.019	-0.009 ± 0.0085	0.0195 ± 0.036	0.0165 ± 0.032	0.0075 ± 0.039	0.0155 ± 0.043	-0.001 ± 0.011	-0.001 ± 0.03	0.031 ± 0.0071	-0.0495 ± 0.0035	-0.0375 ± 0.018	0.022 ± 0.073
MyoF:CXCL8/IL-8	-0.031 ± 0.013	-0.026 ± 0.016	0.013 ± 0.045	0.0205 ± 0.037	0.0085 ± 0.016	-0.011 ± 0.011	-0.0255 ± 0.0064	0.0195 ± 0.06	0.077 ± 0.079	0.0735 ± 0.074	0.001 ± 0.033	-0.0165 ± 0.0092	0.0475 ± 0.0078	-0.0015 ± 0.023	-0.014 ± 0.011	0.002 ± 0.0099
CASM3C:Proliferation	-0.0115 ± 0.015	-0.0025 ± 0.011	0.0235 ± 0.069	0.049 ± 0.0028	0.0205 ± 0.035	-0.036 ± 0.0014	-0.054 ± 0.071	-0.018 ± 0.0099	-0.037 ± 0.025	-0.0085 ± 0.057	-0.024 ± 0.023	-0.0095 ± 0.029	-0.0075 ± 0.025	-0.0675 ± 0.098	0.0315 ± 0.018	-0.0275 ± 0.087
KF3CT:TIMP-2	0.0005 ± 0.026	0.004 ± 0.027	0.0305 ± 0.013	0.003 ± 0.03	-0.051 ± 0.034	-0.016 ± 0.03	-0.041 ± 0.052	-0.0105 ± 0.011	-0.005 ± 0.013	0.004 ± 0.021	-0.0045 ± 0.025	0.0075 ± 0.035	0.004 ± 0.016	-0.001 ± 0.011	0.0075 ± 0.0035	0.008 ± 0.0042
HDF3CGF:CXCL8/IL-8	-0.006 ± 0.0057	-0.0105 ± 0.00071	-0.0065 ± 0.013	0.0065 ± 0.005	0.02 ± 0.011	-0.004 ± 0.0042	0.0025 ± 0.005	0.0015 ± 0.00071	0.0135 ± 0.0035	0.0035 ± 0.0021	0.0045 ± 0.0064	0.0125 ± 0.0035	0.003 ± 0.017	-0.003 ± 0.0057	0.002 ± 0.0014	0.0045 ± 0.012
lMphg:CCL3/MIP-1alpha	-0.011 ± 0.011	-0.0175 ± 0.0064	0.017 ± 0.045	0.004 ± 0.013	-0.0125 ± 0.049	-0.008 ± 0.034	-0.0125 ± 0.044	-0.035 ± 0.0085	-0.0355 ± 0.029	-0.005 ± 0.037	-0.0175 ± 0.012	-0.053 ± 0.0071	-0.0175 ± 0.019	-0.0235 ± 0.039	-0.035 ± 0.024	-0.0015 ± 0.00071
MyoF:Collagen III	0.002 ± 0.031	-0.005 ± 0.0014	-0.007 ± 0.0057	-0.028 ± 0.03	-0.36 ± 0.066	-0.0135 ± 0.052	-0.0455 ± 0.04	-0.0095 ± 0.011	-0.001 ± 0.0014	0.0025 ± 0.021	0.004 ± 0.0099	0.0095 ± 0.0078	0.013 ± 0.0014	-0.0025 ± 0.0092	0.0025 ± 0.011	-0.004 ± 0.02
CASM3C:CXCL9/MIG	0 ± 0.0014	-0.0035 ± 0.005	-0.008 ± 0.0042	-0.012 ± 0.0028	-0.0055 ± 0.0064	0.0335 ± 0.029	0.0445 ± 0.046	0.01 ± 0.0014	0.0125 ± 0.0021	0.044 ± 0.048	-0.0175 ± 0.0078	0.0065 ± 0.005	0.027 ± 0.024	-0.0035 ± 0.00071	-0.01 ± 0.0014	0.0005 ± 0.011
KF3CT:CCL2/MCP-1	-0.0205 ± 0.015	-0.0285 ± 0.023	0.0155 ± 0.071	-0.127 ± 0.023	-0.321 ± 0.032	-0.0235 ± 0.0092	-0.0125 ± 0.037	0.0235 ± 0.039	0.032 ± 0.018	0.023 ± 0.052	0.0035 ± 0.011	-0.0165 ± 0.0092	-0.011 ± 0.013	-0.006 ± 0.0014	-0.009 ± 0.013	0.0165 ± 0.057
MyoF:PAI-I	0.0075 ± 0.0021	-0.002 ± 0.0071	-0.004 ± 0.0057	0.0035 ± 0.012	0.0205 ± 0.025	-0.0025 ± 0.011	-0.019 ± 0.0085	-0.0035 ± 0.015	-0.007 ± 0.0042	0.006 ± 0.018	0.0045 ± 0.016	-0.001 ± 0.0014	0.0025 ± 0.0035	0.0035 ± 0.00071	0.01 ± 0.0014	-0.0055 ± 0.016
HDF3CGF:CXCL11/I-TAC	0.0135 ± 0.0035	0.0195 ± 0.018	0.022 ± 0.024	0.046 ± 0.0014	-0.469 ± 0.28	-0.013 ± 0.0014	-0.0155 ± 0.013	0.002 ± 0.021	0.008 ± 0.0042	-0.0025 ± 0.00071	-0.001 ± 0.023	0.0165 ± 0.012	0.0105 ± 0.00071	0.0015 ± 0.00071	-0.0015 ± 0.0092	-0.0305 ± 0.015
3C:CD142/Tissue Factor	-0.0305 ± 0.032	-0.0575 ± 0.019	-0.0205 ± 0.015	-0.013 ± 0.013	-0.029 ± 0.0042	0.0205 ± 0.015	-0.0295 ± 0.046	-0.015 ± 0.0085	-0.0185 ± 0.0035	-0.002 ± 0.0057	-0.0125 ± 0.066	-0.049 ± 0.034	-0.0095 ± 0.057	-0.002 ± 0.064	-0.007 ± 0.082	-0.0235 ± 0.1
lMphg:CXCL8/IL-8	0.007 ± 0.0071	0.001 ± 0.04	-0.004 ± 0.013	0.0415 ± 0.049	0.04 ± 0.023	-0.0035 ± 0.011	0.006 ± 0.0028	0.02 ± 0.042	0.066 ± 0.038	0.164 ± 0.0035	-0.03 ± 0.065	-0.0275 ± 0.025	-0.001 ± 0.044	0.0095 ± 0.035	-0.0195 ± 0.0064	0.032 ± 0.038
MyoF:Collagen I	0.012 ± 0.0057	0.006 ± 0.0028	0.01 ± 0.0028	-0.0065 ± 0.059	-0.417 ± 0.071	-0.0325 ± 0.037	-0.037 ± 0.02	-0.0045 ± 0.0035	-0.0035 ± 0.021	0.0075 ± 0.016	0.006 ± 0.02	0 ± 0.016	0.0165 ± 0.013	-0.015 ± 0.013	-0.0105 ± 0.00071	-0.014 ± 0.0099
